Values of other authors, collected in paper PMC9516332 (Frontiers in Oncology, 2022).

Legend:
[1] = target: T1, panel of 255 wild-type kinases (Homo sapiens, UniProt Q9NZJ5); conditions: kinase PEK; 1 µmol/L single concentration; ref DOI: 10.1371/journal.pone.0092146; cited from earlier work
T1 sequence (Q9NZJ5 30-1116): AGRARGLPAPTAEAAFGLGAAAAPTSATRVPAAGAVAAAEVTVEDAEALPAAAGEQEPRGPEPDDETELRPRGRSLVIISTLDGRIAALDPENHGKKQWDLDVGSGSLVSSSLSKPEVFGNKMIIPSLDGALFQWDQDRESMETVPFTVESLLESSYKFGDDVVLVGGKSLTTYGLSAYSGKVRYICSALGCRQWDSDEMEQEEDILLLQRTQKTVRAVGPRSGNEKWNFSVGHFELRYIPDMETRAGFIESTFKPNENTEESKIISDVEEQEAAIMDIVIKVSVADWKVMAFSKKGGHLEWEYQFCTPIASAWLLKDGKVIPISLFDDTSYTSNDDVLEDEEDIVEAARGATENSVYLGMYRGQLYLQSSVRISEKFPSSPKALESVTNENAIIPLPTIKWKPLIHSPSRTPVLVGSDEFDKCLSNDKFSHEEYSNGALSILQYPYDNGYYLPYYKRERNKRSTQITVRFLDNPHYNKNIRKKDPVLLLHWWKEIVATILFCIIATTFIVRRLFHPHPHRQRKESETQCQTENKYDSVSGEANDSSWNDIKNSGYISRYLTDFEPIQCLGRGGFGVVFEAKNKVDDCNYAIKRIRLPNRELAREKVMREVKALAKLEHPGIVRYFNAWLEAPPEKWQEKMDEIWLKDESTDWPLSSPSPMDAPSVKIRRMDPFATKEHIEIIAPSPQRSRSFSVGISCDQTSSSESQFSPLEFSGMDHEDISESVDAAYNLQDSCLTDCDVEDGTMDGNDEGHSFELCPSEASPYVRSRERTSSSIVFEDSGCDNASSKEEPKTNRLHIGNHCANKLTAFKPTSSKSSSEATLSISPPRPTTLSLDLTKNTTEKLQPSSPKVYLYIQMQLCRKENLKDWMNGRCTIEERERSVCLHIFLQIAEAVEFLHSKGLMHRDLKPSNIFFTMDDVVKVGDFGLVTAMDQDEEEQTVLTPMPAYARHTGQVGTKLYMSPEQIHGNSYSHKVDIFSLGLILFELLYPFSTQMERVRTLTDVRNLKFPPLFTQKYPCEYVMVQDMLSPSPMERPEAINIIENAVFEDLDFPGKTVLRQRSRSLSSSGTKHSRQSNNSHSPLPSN

[2] = target: panel of 255 wild-type kinases (Homo sapiens, UniProt Q9UK32); conditions: kinase RSK4; 1 µmol/L single concentration; ref DOI: 10.1371/journal.pone.0092146; cited from earlier work
[3] = target: panel of 255 wild-type kinases (Homo sapiens, UniProt Q9UQM7); conditions: CaMK2α kinase assay; 1 µmol/L single concentration; ref DOI: 10.1371/journal.pone.0092146; cited from earlier work
[4] = target: panel of 255 wild-type kinases (Homo sapiens, UniProt P17252); conditions: kinase PKCα; 1 µmol/L single concentration; ref DOI: 10.1371/journal.pone.0092146; cited from earlier work
[5] = target: panel of 255 wild-type kinases (Homo sapiens, UniProt P16591); conditions: kinase FER; 1 µmol/L single concentration; ref DOI: 10.1371/journal.pone.0092146; cited from earlier work
[6] = target: panel of 255 wild-type kinases (Homo sapiens, UniProt O75116); conditions: kinase ROCK2; 1 µmol/L single concentration; ref DOI: 10.1371/journal.pone.0092146; cited from earlier work
[7] = target: panel of 255 wild-type kinases (Homo sapiens, UniProt Q15375); conditions: kinase EPHA7; 1 µmol/L single concentration; ref DOI: 10.1371/journal.pone.0092146; cited from earlier work
[8] = target: panel of 255 wild-type kinases (Homo sapiens, UniProt P54646); conditions: AMPKα2/β1/γ1 kinase assay; 1 µmol/L single concentration; ref DOI: 10.1371/journal.pone.0092146; cited from earlier work
[9] = target: panel of 255 wild-type kinases (Homo sapiens, UniProt Q9Y463); conditions: kinase DYRK1B; 1 µmol/L single concentration; ref DOI: 10.1371/journal.pone.0092146; cited from earlier work
[10] = target: panel of 255 wild-type kinases (Homo sapiens, UniProt P00519); conditions: ABL kinase assay; 1 µmol/L single concentration; ref DOI: 10.1371/journal.pone.0092146; cited from earlier work
[11] = target: panel of 255 wild-type kinases (Homo sapiens, UniProt Q7KZI7); conditions: MARK2; 1 µmol/L single concentration; ref DOI: 10.1371/journal.pone.0092146; cited from earlier work

CCCS(=O)(=O)Nc1ccc(F)c(C(=O)c2c[nH]c3ncc(-c4ccc(Cl)cc4)cc23)c1F [vemurafenib]
%-inhibition at 1 µmol/L, PEK [1]: 11%
%-inhibition at 1 µmol/L, RSK4 [2]: -3%
%-inhibition CaMK2α [3]: -4.25%
%-inhibition at 1 µmol/L, PKCα [4]: -3.61%
%-inhibition at 1 µmol/L, FER [5]: 11%
%-inhibition at 1 µmol/L, ROCK2 [6]: -0.177%
%-inhibition at 1 µmol/L, EPHA7 [7]: -0.639%
%-inhibition AMPKα2/β1/γ1 [8]: 6.49%
%-inhibition at 1 µmol/L, DYRK1B [9]: -1.74%
%-inhibition ABL [10]: 15%
%-inhibition, MARK2 [11]: -0.167%
